Laboratory results taken from publication PMC12368479, “Inhibition of the Clathrin Terminal Domain—Amphiphysin Protein–Protein Interaction. Probing the Pitstop 2 Aromatic Moiety” (Chemmedchem, 2025).

Target: T1, full length human Dynamin I (Homo sapiens, UniProt Q05193)
T1 construct: full length human Dynamin I expressed in Sf21 insect cells; made in house; host or cells: Sf21 insect cells
T1 sequence (Q05193 1-864): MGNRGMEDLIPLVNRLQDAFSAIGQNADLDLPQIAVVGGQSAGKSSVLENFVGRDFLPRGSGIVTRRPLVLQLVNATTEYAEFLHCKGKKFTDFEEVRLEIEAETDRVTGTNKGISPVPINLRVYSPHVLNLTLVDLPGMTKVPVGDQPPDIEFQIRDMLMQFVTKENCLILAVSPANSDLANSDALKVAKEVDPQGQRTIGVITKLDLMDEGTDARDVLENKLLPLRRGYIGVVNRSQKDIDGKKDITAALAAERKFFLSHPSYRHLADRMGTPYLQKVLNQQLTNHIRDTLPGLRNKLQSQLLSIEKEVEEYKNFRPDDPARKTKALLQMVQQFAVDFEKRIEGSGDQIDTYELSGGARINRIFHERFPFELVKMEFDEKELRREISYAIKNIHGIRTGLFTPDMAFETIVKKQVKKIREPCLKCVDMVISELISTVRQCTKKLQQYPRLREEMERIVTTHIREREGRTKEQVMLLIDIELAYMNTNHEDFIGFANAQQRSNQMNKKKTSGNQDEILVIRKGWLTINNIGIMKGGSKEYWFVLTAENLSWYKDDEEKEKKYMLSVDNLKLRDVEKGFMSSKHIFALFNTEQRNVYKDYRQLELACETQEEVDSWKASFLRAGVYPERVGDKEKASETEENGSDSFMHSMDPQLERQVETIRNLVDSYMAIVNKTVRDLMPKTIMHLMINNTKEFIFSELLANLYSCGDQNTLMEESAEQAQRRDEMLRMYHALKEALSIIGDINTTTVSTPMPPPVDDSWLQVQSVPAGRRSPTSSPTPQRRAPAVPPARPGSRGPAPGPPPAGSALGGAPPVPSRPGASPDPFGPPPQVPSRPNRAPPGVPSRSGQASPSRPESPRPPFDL
Experiment: Dynamin GTPase activity, Malachite Green phosphate detection assay
Assay type: biochemical
Conditions: Table 1, library 1; n = 1 unless noted (19: n = 2); '–' = not active at 150 μM; read-out: Dyn 1 IC50
Experimental: Dynamin GTPase activity was determined in vitro using the Malachite Green phosphate detection absorbance‐based assay within a 96‐well plate format as described previously. The enzyme source was full length human Dynamin I expressed in Sf21 insect cells and affinity‐purified on GST‐Amph2‐SH3 (rat Amphiphysin 2 (494–588)).^[ [56] ^]

Compound | IC50 [µM]
N#Cc1ccc(/C=C2\SC(NS(=O)(=O)c3cccc4ccccc34)=NC2=O)cc1 [compound 11, (Z)‐N‐(5‐(4‐cyanobenzylidene)‐4‐oxo‐4,5‐dihydrothiazol‐2‐yl)naphthalene‐1‐sulfonamide] | > 150
O=C1N=C(NS(=O)(=O)c2cccc3ccccc23)SC1=Cc1ccccc1-c1ccccc1 [compound 16, N‐(5‐([1,1'‐biphenyl]‐2‐ylmethylene)‐4‐oxo‐4,5‐dihydrothiazol‐2‐yl)naphthalene‐1‐sulfonamide] | > 150
CC(C)(C)c1ccc(/C=C2\SC(NS(=O)(=O)c3cccc4ccccc34)=NC2=O)cc1 [compound 20, (Z)‐N‐(5‐(4‐(tert‐butyl)benzylidene)‐4‐oxo‐4,5‐dihydrothiazol‐2‐yl)naphthalene‐1‐sulfonamide] | > 150
CCCc1ccc(/C=C2\SC(NS(=O)(=O)c3cccc4ccccc34)=NC2=O)cc1 [compound 22, (Z)‐N‐(4‐oxo‐5‐(4‐propylbenzylidene)‐4,5‐dihydrothiazol‐2‐yl)naphthalene‐1‐sulfonamide] | ~91
CCCCc1ccc(/C=C2\SC(NS(=O)(=O)c3cccc4ccccc34)=NC2=O)cc1 [compound 23, (Z)‐N‐(5‐(4‐butylbenzylidene)‐4‐oxo‐4,5‐dihydrothiazol‐2‐yl)naphthalene‐1‐sulfonamide] | ~103

Same assay, conditions: Table 2, library 2; n = 3, triplicate; '–' = not active at 100 μM; read-out: Dyn 1 IC50

Compound | IC50 [µM]
O=C1N=C(NS(=O)(=O)c2cccc3ccccc23)S/C1=C\c1ccc(O)cc1O [compound 25, (Z)‐N‐(5‐(2,4‐dihydroxybenzylidene)‐4‐oxo‐4,5‐dihydrothiazol‐2‐yl)naphthalene‐1‐sulfonamide] | 61.2 ± 7.5
O=C1N=C(NS(=O)(=O)c2cccc3ccccc23)S/C1=C\c1cc(O)ccc1O [compound 26, (Z)‐N‐(5‐(2,5‐dihydroxybenzylidene)‐4‐oxo‐4,5‐dihydrothiazol‐2‐yl)naphthalene‐1‐sulfonamide] | 70 ± 5.3
O=C1N=C(NS(=O)(=O)c2cccc3ccccc23)S/C1=C\c1ccc(O)c(O)c1 [compound 27, (Z)‐N‐(5‐(3,4‐dihydroxybenzylidene)‐4‐oxo‐4,5‐dihydrothiazol‐2‐yl)naphthalene‐1‐sulfonamide] | 50.4 ± 8.4
O=C1N=C(NS(=O)(=O)c2cccc3ccccc23)S/C1=C\c1ccc(O)c(O)c1O [compound 28, (Z)‐N‐(4‐oxo‐5‐(2,3,4‐trihydroxybenzylidene)‐4,5‐dihydrothiazol‐2‐yl)naphthalene‐1‐sulfonamide] | 34.3 ± 3.4
COc1cccc(/C=C2\SC(NS(=O)(=O)c3cccc4ccccc34)=NC2=O)c1OC [compound 29, (Z)‐N‐(5‐(2,3‐dimethoxybenzylidene)‐4‐oxo‐4,5‐dihydrothiazol‐2‐yl)naphthalene‐1‐sulfonamide] | > 100
COc1cc(/C=C2\SC(NS(=O)(=O)c3cccc4ccccc34)=NC2=O)cc(OC)c1 [compound 32, (Z)‐N‐(5‐(3,5‐dimethoxybenzylidene)‐4‐oxo‐4,5‐dihydrothiazol‐2‐yl)naphthalene‐1‐sulfonamide] | > 100
O=C1N=C(NS(=O)(=O)c2cccc3ccccc23)S/C1=C\c1ccc(F)c(F)c1 [compound 38, (Z)‐N‐(5‐(3,4‐difluorobenzylidene)‐4‐oxo‐4,5‐dihydrothiazol‐2‐yl)naphthalene‐1‐sulfonamide] | > 100

Same assay, conditions: Table 3, library 3; n = 1 unless otherwise stated (41, 42: n = 2); '–' = not active at 100 μM; read-out: Dynamin 1 IC50

Compound | IC50 [µM]
O=C1N=C(NS(=O)(=O)c2cccc3ccccc23)S/C1=C\C1CCCCC1 [compound 40, (Z)‐N‐(5‐(cyclohexylmethylene)‐4‐oxo‐4,5‐dihydrothiazol‐2‐yl)naphthalene‐1‐sulfonamide] | > 100

Same assay, conditions: values quoted in running text (section 2.2); read-out: Dynamin IC50

Compound | IC50 [µM]
CCCc1ccc(/C=C2\SC(NS(=O)(=O)c3cccc4ccccc34)=NC2=O)cc1 [compound 22, (Z)‐N‐(4‐oxo‐5‐(4‐propylbenzylidene)‐4,5‐dihydrothiazol‐2‐yl)naphthalene‐1‐sulfonamide] | 91
CCCCc1ccc(/C=C2\SC(NS(=O)(=O)c3cccc4ccccc34)=NC2=O)cc1 [compound 23, (Z)‐N‐(5‐(4‐butylbenzylidene)‐4‐oxo‐4,5‐dihydrothiazol‐2‐yl)naphthalene‐1‐sulfonamide] | 103

Target: T2, clathrin heavy chain NTD (amino acids 1–364) – amphiphysin 1 B/C domain protein–protein interaction (NTD‐PPI) (Homo sapiens, UniProt Q00610)
T2 construct: GST‐tagged clathrin heavy chain NTD (amino acids 1–364); made in house
T2 sequence (Q00610 1-364): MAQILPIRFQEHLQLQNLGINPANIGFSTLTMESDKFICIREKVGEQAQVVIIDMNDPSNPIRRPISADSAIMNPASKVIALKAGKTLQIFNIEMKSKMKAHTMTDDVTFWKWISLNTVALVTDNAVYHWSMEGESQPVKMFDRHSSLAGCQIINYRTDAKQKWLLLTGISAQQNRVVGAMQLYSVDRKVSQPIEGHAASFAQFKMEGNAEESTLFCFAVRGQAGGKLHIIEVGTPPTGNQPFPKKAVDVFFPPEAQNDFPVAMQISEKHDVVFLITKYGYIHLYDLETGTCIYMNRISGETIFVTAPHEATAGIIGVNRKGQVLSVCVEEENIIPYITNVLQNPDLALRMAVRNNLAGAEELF
Experiment: ELISA-based clathrin inhibitor binding assay (NTD-PPI)
Conditions: Table 3, library 3; ELISA, average of duplicate measurements (n = 2); read-out: NTD‐PPI IC50
Experimental: The clathrin inhibitor assay was based inhibition of protein–protein interaction (PPI) between clathrin and amphiphysin as described in our previous report.^[ [45], [54] ^] Bacterially expressed recombinant purified His6‐tagged amphiphysin 1 B/C domain (which comprises both the clathrin and the AP‐2 binding sites, amino acids 250‐578^[ [55] ^]) in screening buffer (20 mM HEPES, pH 7.4, 50 mM NaCl, 1 mM DTT, 1 mM PMSF) was added to a 384 well ELISA plate (Corning Maxisorp 3700) and bound to the plastic for 1 h at room temperature. […] Following extensive washes (with 20 mM HEPES, pH 7.4, 50 mM NaCl, 0.05% Tween 20), chemical compounds diluted in DMSO (10 μL) were added and incubated together with bacterially expressed recombinant GST‐tagged clathrin heavy chain NTD (amino acids 1–364) for 1 h at room temperature in screening buffer. After 3 washes, horseradish peroxidase‐coupled anti‐GST antibodies were added in screening buffer and the plate incubated for 40 min at room temperature. Following additional washes, 50 μL TMB (3,3′,5,5′‐tetramethylbenzidine) (Pierce Biotechnology) chromogenic substrate of horseradish peroxidase was added, and the plate was incubated for 10 min before the reaction was terminated by adding 50 μL 1N sulfuric acid to produce a yellow colour. The amount of bound protein was determined by spectrophotometric measurement in a plate reader. Relative binding was calculated as a percentage of DMSO control.

Compound | IC50 [µM]
O=C1N=C(NS(=O)(=O)c2cccc3ccccc23)S/C1=C\C1CC=CCC1 (centres unmarked) [compound 39, (Z)‐N‐(5‐(cyclohex‐3‐en‐1‐ylmethylene)‐4‐oxo‐4,5‐dihydrothiazol‐2‐yl)naphthalene‐1‐sulfonamide] | 4.3
CCCCCCC/C=C1\SC(NS(=O)(=O)c2cccc3ccccc23)=NC1=O [compound 43, (Z)‐N‐(5‐octylidene‐4‐oxo‐4,5‐dihydrothiazol‐2‐yl)naphthalene‐1‐sulfonamide] | 5.9
